From EP0928340B1, “INVASION-INHIBITORS FOR USE IN WOUND HEALING AND CANCER” (THE REGENTS OF THE UNIVERSITY OF MICHIGAN, priority 1996, dated 2009)
Like-named read-outs stand apart in the source and are kept apart here.

Columns and labels:
[1] = test system: DU-145 prostate cancer cells; assay: SU-ECM in vitro invasion assay, human prostate cancer cells; format: cell-based; settings: for IC100: Homo sapiens, DU-145, read-out: concentration that completely (fully) inhibits invasion
Protocol: Adult Strongylocentrotus purpuratus sea urchins were obtained from Pacific BioMarine, and their embryos were cultured to the early pluteus stage in artificial sea water at 15°C. SU-ECM were prepared from them by treatment with nonionic detergent and strerilized by dilution in the appropriate media.
[…] When appropriate, purified bovine plasma fibronectin (Sigma), purified 120 kDa chymotryptic fragment (Gibco BRL). PHSRN or PHSCN peptides (synthesized at the Biomedical Research Core Facilities of the University of Michigan), or GRGDSP or GRGESP peptides (Gibco BRL) were added to the resuspended cells prior to placement of the cells on SU-ECM. In each well of a plate used for an invasion assay, SU-ECM were placed in 0.5 ml of the appropriate medium, and 0.5ml of the resuspended cells dropped on their exterior surfaces. Invasion assays were incubated 1 to 16 hours prior to assay. If some circumstances, invasion assays were fixed in phosphate-buffered saline (PBS) with 2% formaldehyde for 5 minutes at room temperature, then rinsed into PBS.
Invasion assays were coded and scored blindly by microscopic examination under phase contrast at 200- and 400-fold magnification. Each cell contacting an SU-ECM was scored for its position relative to the exterior or interior surfaces. A cell was judged to have invaded if it was located on an interior surface below the focal plane passing through the upper surface of the SU-ECM, but above the focal plane passing through its lower surface. The minimum viability of the cells in each assay was always ascertained at the time of assay by determining the fraction of spread, adherent cells on the bottom of each well scored.
An invasion frequency is defined as the fraction of cells in contact with basement membranes which were located in their interiors at the time of assay. Thus, an invasion frequency of 1 denotes invasion by 100% of the cells in contact with basement membranes. Invasion frequencies were determined multiple times for each cell type assayed. For each type of cell assayed the mean and standard deviation of the invasion frequencies were calculated.
The method of Example 4 is employed, with the addition of varying concentrations of the PHSCN peptide.
Thus, the procedure in Example 4 provides a method for determining the inhibitory potential of the PHSCN peptide by comparing the number of cell invasions in the presence of the PHSCN peptide, with the number of cell invasions in the absence of the PHSCN peptide.
In this example, in vitro invasion of cancer cells into substrates is inhibited with peptides that have been chemically modified with protecting groups and peptides having protecting groups as well as the modification wherein an L-amino acid has been replaced with the D-isomer. PHSCN peptide, blocked PHSCN peptide, and blocked PHSCN peptide with a D-cysteine instead of the L-isomer, were tested (Figure 11).
In this example, in vitro invasion of cancer cells into substrates is inhibited with non-peptide mimetics in comparison with chemically modified peptides (on a molar basis). The peptides of Example 14 (i.e. peptides chemically modified with protecting groups and peptides having protecting groups as well as the modification wherein an L-amino acid has been replaced with the D-isomer) were compared with the non-peptide mimetics DL-N-Acetylhomocysteinethiolactone, Thiobutyrolactone, and Mercaptopropionic acid, in order to investigate the structure activity relationship for invasion inhibition by interaction with the PHSRN-binding pocket of the α5β1 fibronectin receptor (Figure 12)

[2] = target: α5β1 integrin fibronectin receptor (human) (UniProt P08648); assay: cell-based or functional assay
[3] = target: α5β1 integrin fibronectin receptor (human) (UniProt P08648); assay: cell-based or functional assay; remark: listed apart in the source
[4] = invasion inhibition, molar basis (Figure 12)

UniProt P08648, sequence (P08648 42-1049, chain 1 of 2): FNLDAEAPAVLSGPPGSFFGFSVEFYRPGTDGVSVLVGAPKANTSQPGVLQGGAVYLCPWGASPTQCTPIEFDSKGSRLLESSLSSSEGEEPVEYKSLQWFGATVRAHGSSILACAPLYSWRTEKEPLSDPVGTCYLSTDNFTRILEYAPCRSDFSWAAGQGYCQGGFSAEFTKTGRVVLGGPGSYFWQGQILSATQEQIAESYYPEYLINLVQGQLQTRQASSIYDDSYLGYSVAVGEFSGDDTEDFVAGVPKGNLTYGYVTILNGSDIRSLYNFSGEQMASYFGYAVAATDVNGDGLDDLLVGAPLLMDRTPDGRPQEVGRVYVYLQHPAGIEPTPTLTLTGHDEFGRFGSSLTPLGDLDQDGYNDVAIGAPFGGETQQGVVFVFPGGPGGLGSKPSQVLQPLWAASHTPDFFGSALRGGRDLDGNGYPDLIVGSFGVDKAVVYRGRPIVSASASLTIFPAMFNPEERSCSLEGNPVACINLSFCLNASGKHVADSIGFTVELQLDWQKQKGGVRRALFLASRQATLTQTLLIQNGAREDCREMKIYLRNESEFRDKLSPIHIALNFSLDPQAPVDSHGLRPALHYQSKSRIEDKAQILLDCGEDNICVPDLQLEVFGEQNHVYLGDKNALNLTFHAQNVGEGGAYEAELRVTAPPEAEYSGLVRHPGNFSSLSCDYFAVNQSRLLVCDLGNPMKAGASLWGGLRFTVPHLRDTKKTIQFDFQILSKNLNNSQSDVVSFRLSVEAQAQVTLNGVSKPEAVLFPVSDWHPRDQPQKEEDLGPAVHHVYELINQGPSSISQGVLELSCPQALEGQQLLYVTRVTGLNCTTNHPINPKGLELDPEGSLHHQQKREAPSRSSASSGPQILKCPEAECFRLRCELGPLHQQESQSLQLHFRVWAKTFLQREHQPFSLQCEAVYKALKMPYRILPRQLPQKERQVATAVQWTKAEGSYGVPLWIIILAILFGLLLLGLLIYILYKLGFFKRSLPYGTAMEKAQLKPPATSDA
UniProt P08648, sequence (P05556 21-798, chain 2 of 2, further chain): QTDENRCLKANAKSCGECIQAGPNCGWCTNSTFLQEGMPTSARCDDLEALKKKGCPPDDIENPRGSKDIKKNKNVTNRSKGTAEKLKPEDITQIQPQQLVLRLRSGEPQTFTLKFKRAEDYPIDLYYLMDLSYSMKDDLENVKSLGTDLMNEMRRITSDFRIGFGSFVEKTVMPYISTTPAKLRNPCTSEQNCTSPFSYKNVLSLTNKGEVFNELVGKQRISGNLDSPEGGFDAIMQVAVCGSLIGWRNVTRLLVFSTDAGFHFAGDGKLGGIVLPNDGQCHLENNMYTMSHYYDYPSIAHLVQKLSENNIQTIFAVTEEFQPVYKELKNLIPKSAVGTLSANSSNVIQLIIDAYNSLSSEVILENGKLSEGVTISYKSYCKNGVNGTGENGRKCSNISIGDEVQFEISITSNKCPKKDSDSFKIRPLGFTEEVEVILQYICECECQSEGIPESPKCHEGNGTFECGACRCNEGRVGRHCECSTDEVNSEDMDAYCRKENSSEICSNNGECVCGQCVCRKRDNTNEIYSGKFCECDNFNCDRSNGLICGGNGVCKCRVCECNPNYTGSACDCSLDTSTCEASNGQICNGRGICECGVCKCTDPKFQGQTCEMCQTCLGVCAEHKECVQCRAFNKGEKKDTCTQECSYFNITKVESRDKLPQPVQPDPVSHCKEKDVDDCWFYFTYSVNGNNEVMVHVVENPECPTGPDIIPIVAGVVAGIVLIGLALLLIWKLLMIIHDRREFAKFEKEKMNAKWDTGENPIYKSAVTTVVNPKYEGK

Row | Molecule | IC100 [1] | less active than blocked PHSCN [1, 4] | less active than the unblocked PHSCN peptide [1, 4] | concentration giving complete inhibition of invasion of metastatic DU145 cells into SU-ECM in medium with 10% serum [2] | concentration giving complete inhibition of invasion of metastatic DU145 cells into SU-ECM in medium with 10% serum [3] | further results
1 | CC(=O)NC1CCSC1=O (racemic) [DL-N-Acetylhomocysteinethiolactone] | 0.6 µM | about 10 fold | – | – | – | more active than the unblocked PHSCN peptide [1, 4]: about 3 fold
2 | O=C(O)CCS [Mercaptopropionic acid] | – | – | 1500 times | – | – | reduction of DU145 invasion ([1]; at any of the concentrations tested, medium with 10% serum (Figure 12)): ≤ 20%; less active in invasion inhibition than thiobutyrolactone [1, 4]: at least 100 times
3 | O=C1CCCS1 [Thiobutyrolactone] | 30 µM | about 500 fold | 15 times | – | – | less active than N-acetylhomocysteinethiolactone [1, 4]: 50 fold
4 | Ac-PHSCN-NH2 [Ac-PHSCN-NH2] | – | – | – | – | – | concentration that completely inhibits invasion ([1]; medium with 10% serum (Example 14, Figure 11)): approximately 1.3 ng/ml; concentration that completely (fully) inhibits invasion ([1]; medium with 10% serum (Example 15, Figure 12)): approximately 0.06 µM
5 | Ac-PHSCN-NH2 peptide | – | – | – | 1.3 ng/mL | 0.06 µM | –
6 | PHSCN peptide | – | – | – | 3 ng/mL | 2 µM | –
